Results from article PMC8086025, “A benzopyran with antiarrhythmic activity is an inhibitor of Kir3.1-containing potassium channels” (The Journal of Biological Chemistry, 2021).
“And” between values parts separate entries of the source, which are not always exact repeats. Equal entries are not always repeated. “Also recorded” adds a separate entry of the source.

Experiments:
[1] = molecular target: T1, wild-type Kir3.4 channel (Homo sapiens, UniProt P48544); assay: TEVC in Xenopus oocytes, wild-type Kir3.4; assay type: cell-based; settings: 1 μM
T1 construct: expressed in transfected cells; host or cells: Xenopus laevis oocytes (cRNA injection)
Experimental: (§1) X. laevis oocytes were isolated and microinjected as previously described ([6]). Human Kir3.1, mouse Kir3.2, and human Kir3.4 DNA constructs were used for electrophysiology experiments. All cRNA constructs were injected in the amount of 2 ng per oocyte. Injected oocytes were incubated for 2 to 3 days at 18 °C to allow for expression. Whole-cell oocyte currents were then measured using a GeneClamp 500 amplifier (Axon Instruments). Microelectrodes had resistances of 0.5 to 1 megohm using a 3M KCl solution in 1.4% agarose. Oocytes were perfused with a low K^+ (LK) solution ND96 (2 mM KCl, 96 mM NaCl, 1 mM MgCl2, 1.8 mM CaCl2, 5 mM HEPES-Na) to establish a baseline for the recordings. Basal current was measured in a high potassium (HK) solution ND96K (96 mM KCl, 10 mM HEPES-K, 1 mM MgCl2, 1.8 mM CaCl2). To block the current, the oocyte chamber was perfused with 4 mM BaCl2 in ND96K. Only the Barium-sensitive current was used for statistical analysis. To measure the inhibitory activity of the channels, 1 μM BP-G1 in ND96K (HK) was used. Typically, oocytes were held at 0 mV (EK) and the current was monitored constantly using a ramp protocol with a command potential from −80 to +80 mV. Current amplitude was measured at the end of a 1 s sweep. All currents were analyzed when they reached steady state. Error bars in the figures represent SD (N > 4).

[2] = molecular target: T2, NaV1.2 and NaVβ1 (Rattus norvegicus, UniProt P04775); assay: NaV1.2 currents in Xenopus oocytes; assay type: cell-based
T2 construct: expressed in transfected cells; host or cells: Xenopus oocytes
T2 sequence (P04775 whole entry): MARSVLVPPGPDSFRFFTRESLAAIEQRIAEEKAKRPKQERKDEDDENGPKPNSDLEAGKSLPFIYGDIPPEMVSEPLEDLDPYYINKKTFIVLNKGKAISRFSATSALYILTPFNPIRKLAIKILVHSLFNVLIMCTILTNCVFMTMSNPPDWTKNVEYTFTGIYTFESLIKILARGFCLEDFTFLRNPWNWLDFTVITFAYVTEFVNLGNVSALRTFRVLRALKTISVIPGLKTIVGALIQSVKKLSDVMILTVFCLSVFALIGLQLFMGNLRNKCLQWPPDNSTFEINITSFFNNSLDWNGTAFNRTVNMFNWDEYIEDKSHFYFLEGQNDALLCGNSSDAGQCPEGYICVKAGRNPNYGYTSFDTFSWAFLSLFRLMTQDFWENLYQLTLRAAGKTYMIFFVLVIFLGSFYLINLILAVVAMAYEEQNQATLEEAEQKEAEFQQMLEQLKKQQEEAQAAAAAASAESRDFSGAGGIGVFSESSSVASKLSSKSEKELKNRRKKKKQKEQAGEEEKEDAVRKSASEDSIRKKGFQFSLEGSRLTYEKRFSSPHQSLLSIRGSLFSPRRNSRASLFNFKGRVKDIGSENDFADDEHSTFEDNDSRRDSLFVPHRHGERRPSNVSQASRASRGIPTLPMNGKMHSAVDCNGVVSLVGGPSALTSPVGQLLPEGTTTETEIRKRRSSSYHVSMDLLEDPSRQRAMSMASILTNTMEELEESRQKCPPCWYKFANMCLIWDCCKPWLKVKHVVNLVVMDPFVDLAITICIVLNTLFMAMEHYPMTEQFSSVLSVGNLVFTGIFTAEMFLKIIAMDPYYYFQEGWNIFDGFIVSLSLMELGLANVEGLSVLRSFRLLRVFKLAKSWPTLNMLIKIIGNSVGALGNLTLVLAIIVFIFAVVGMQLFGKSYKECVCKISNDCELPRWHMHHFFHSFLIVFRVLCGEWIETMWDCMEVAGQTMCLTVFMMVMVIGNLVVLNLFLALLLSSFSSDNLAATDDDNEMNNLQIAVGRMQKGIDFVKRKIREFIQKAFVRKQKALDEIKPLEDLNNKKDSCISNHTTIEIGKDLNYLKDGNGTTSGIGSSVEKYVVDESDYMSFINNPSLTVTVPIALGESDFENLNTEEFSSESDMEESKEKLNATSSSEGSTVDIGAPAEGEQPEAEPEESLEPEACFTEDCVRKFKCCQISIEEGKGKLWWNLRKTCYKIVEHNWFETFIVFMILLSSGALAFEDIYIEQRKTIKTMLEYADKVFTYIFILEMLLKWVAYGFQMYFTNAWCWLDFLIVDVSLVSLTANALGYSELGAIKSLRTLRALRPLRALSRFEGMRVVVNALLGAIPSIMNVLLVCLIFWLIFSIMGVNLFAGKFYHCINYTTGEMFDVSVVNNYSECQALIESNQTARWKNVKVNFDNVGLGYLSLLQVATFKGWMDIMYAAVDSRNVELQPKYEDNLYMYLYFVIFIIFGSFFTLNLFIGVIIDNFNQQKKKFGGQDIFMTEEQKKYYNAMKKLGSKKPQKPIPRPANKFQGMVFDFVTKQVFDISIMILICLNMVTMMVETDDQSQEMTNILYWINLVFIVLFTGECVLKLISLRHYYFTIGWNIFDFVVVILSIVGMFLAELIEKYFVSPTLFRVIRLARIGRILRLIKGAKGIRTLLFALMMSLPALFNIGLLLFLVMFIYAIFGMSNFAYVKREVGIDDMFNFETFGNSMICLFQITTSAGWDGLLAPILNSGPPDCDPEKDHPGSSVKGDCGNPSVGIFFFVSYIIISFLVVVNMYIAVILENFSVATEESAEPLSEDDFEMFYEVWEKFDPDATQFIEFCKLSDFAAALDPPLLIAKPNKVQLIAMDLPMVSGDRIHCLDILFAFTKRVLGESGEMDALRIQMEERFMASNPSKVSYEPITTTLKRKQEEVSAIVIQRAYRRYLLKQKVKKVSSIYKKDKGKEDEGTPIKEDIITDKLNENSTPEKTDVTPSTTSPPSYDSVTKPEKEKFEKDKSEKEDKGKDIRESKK
T2 sequence (Q00954 19-218 partner): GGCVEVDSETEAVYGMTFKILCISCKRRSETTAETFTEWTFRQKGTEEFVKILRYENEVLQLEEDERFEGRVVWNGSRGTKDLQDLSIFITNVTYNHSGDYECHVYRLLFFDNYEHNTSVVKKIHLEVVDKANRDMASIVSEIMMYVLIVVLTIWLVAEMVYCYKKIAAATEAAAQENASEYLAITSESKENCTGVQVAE

[3] = molecular target: T3, Neurokinin NK1 (Homo sapiens, UniProt P25103); assay: Radioligand binding, [125I]-Substance P LYS3, U373MG uppsala; settings: read-out: % Specific Binding at 10 µM
T3 construct: endogenous in cells; host or cells: U373MG uppsala
T3 sequence (P25103 whole entry): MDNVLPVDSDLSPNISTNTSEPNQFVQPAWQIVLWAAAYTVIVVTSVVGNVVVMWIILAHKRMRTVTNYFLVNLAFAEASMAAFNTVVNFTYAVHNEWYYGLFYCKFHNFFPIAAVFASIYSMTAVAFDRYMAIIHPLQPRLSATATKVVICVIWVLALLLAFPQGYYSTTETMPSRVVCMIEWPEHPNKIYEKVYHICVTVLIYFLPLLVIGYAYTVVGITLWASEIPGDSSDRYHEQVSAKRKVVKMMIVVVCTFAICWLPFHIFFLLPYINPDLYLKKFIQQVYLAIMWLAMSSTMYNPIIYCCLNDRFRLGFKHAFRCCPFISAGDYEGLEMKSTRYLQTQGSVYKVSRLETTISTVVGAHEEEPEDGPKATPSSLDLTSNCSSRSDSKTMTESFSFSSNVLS

[4] = molecular target: T4, Kir3.1/4 channel (Homo sapiens, UniProt P48544+P48549); assay: Whole-cell patch clamp, HEK293T cells, Kir3.1/4; assay type: cell-based; parameters: expressed in transfected cells; settings: whole-cell patch-clamp HEK-293 cells; read-out: IC50, inhibition of Kir3.1/4
T4 sequence (P48549 1-501): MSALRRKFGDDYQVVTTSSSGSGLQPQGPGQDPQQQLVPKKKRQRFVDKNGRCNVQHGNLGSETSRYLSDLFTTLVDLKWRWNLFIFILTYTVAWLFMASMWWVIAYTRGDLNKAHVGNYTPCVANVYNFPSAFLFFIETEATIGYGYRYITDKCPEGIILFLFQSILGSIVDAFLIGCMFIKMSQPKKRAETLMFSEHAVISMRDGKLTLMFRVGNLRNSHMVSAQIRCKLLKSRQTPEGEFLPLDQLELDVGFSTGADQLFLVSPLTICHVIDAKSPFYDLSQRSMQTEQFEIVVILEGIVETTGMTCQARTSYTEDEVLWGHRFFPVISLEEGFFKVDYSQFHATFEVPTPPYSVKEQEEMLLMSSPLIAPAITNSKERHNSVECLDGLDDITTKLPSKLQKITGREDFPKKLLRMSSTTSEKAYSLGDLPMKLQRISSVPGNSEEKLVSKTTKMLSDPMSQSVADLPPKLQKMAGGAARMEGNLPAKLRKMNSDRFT
T4 sequence (P48544 1-419): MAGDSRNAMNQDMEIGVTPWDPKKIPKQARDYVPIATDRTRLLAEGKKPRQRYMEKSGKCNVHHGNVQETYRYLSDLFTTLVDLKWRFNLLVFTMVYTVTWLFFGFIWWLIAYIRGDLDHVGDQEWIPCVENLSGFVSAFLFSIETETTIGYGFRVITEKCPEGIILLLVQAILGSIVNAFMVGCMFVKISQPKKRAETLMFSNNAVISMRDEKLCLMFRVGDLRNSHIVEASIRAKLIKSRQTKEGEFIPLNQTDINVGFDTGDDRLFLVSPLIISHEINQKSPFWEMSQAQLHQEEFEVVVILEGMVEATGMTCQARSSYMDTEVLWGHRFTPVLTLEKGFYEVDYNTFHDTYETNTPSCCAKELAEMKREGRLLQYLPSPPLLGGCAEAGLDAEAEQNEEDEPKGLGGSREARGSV
Experimental: For the experiments shown in Figure 1, G and H, whole-cell currents were recorded with an Axopatch 200B amplifier and pCLAMP software (Molecular Devices). HEK293T cells were transiently transfected with 1 μg Kir3.1 together with 1 μg Kir3.2 or 1 μg Kir3.4 DNA, using polyethylenimine (PEI). The cells were maintained in DMEM supplemented with 10% Fetal Bovine Serum and 1% Penicillin/Streptomycin at 37 °C in a 5% CO2 humidified atmosphere and were studied 24 to 48 h after transfection. HEK293T cells were bathed in Low K^+ (LK) solution (135 mM NaCl, 5 mM KCl, 1.2 mM MgCl2, 1.5 mM CaCl2, 8 mM Glucose, 10 mM HEPES with pH 7.4). High K^+ (HK) solution (5 mM NaCl, 135 mM KCl, 1.2 mM MgCl2, 1.5 mM CaCl2, 8 mM Glucose, 10 mM HEPES with pH 7.4) was perfused to establish basal currents. BP-G1 in HK solution was perfused sequentially in a concentration response manner prior to applying 5 mM BaCl2 in HK to identify remaining barium-insensitive leak currents and subtract them from the current records. […] Cells used in the experiments were selected based on eGFP fluorescence. A ramp protocol from −80 mV to +80 mV was used and currents were recorded at −80 mV in the whole-cell mode (using the Strathclyde Electrophysiology Software from the University of Strathclyde, Glasgow). The patch-clamp data were analyzed offline in pClamp (Molecular Devices) and OriginLab software. […]

[5] = molecular target: T4, Kir3.1/4 channel; assay: TEVC in Xenopus oocytes, Kir3.1/4; assay type: cell-based; parameters: expressed in transfected cells; host or cells: Xenopus laevis oocytes (cRNA injection)
Experimental: as §1

## Cc1cc(CO)nc2cc3c(cc12)OC(C)(C)[C@H](O)[C@H]3NCCc1ccccc1 [BP-G1, (3R,4S)-7-(hydroxymethyl)-2,2,9-trimethyl-4-(2-phenylethylamino)-3,4-dihydropyrano[2,3-g]quinolin-3-ol]
[1]
  inhibition of wild-type Kir3.4: did not inhibit; also recorded: showed no block
[2]; 10 µM
  block of TTX-sensitive NaV1.2 currents: did not block
[2]; 10 μM BP-G1, vehicle -2.16 ± 0.36 μA, mean ± SD, N=10
  average NaV1.2 current: -2.17 μA
[2]; Table S1
  IC50, NaV1.2: > 10000 nM
[3]
  inhibition at 10 µM: 42.6%
[4]
  IC50: 10 to 30 nM and 10.5 nM
[5]; 1 μM, TEVC
  current block, wild-type Kir3.1/4: 75 to 80%
[5]; TEVC oocyte experiments, read-out: IC50, inhibition of Kir3.1/4
  IC50: 55 nM and 55.9 nM
